# US9327264B2, “Containerless synthesis of amorphous and nanophase organic materials” (UCHICAGO ARGONNE, LLC, priority 2011, dated 2016)
# Like-named read-outs stand apart in the source and are kept apart here.
# What was measured:
# Type in all cases: physicochemical
# [1] = Shelf life of substantially pure amorphized materials stored at 4° C. (x-ray diffraction)
# Excerpt: The inventors have discovered that acoustic levitation produces amorphous forms of a variety of organic compounds having different glass forming abilities. […] It is also noted that the term “vitreous”, “vitrify”, “vitrification”, “glass” and “glassy” are variations of amorphous for the purposes of this specification and may be used interchangeably. The x-ray diffraction patterns were obtained using very high flux, high energy x-rays that are capable of detecting even minute (<1%) traces of crystalline materials. A configuration to enable x-ray beam analysis is depicted in FIG. 8 and discussed infra.
# Several amorphized samples were quenched by trapping them in a small volume of liquid quenchent (for example liquid nitrogen, which is maintained at about −196° C.). The quenched samples were stored at temperatures ranging from about −20° C. to 25° C.
# Shelf life is therefore extended by cooling them. […] For bulk storage of amorphized materials, samples are stored at temperatures below freezing (0° C.) if the samples are to be kept more than 150 days. However, for short term storage (e.g., less than 150 days), stability is achieved at storage temperatures up to about 20° C.
# Myriad types of materials are candidates for processing using the invented weightless process. Suitable genuses of material include, but are not limited to pharmaceuticals, antibiotics, cosmetics, foods such as dairy products, and combinations thereof. Table 1 below depicts the sample stability over time for various amorphous materials produced using the invented method.
# The structure of the starting crystalline materials, the supersaturated samples processed in the levitator, and the in-situ progress of the evaporation experiments were measured using the 115 keV x-ray diffraction beam line 11-ID-C at the Advanced Photon Source, located at Argonne National Laboratory, Argonne, Ill. X-rays with an incident wavelength of 0.10798 Å were used and the scattered x-ray intensity was measured with a flat plate a-Si Perkin Elmer area detector (model XRD 1621). Generally, radiations greater than 40 keV are suitable to provide bulk structure detail of materials about a millimeter or two in size.
# [2] = Glass transition temperature Tg
# Procedure: The quenched samples were stored at temperatures ranging from about −20° C. to 25° C.
# [3] = Retention of amorphous form on temperature exposure and room temperature storage (x-ray diffraction); conditions: for Amorphous state during temperature exposure: exposure to temperatures between about −200° C. and 25° C.; for Time amorphous form could be stored: room temperature, in glass or in contact with polyimide film
# Excerpt: (Suitable film is polyimide film, e.g., Kapton from Dupont.)
# The structure and properties of stable or meta-stable amorphous gels are often quite different from their crystalline counterparts. Therefore at, or just prior to, tP the gels were quenched into a small dish of liquid nitrogen in an attempt to preserve the amorphous forms. The cold solid samples were quickly recovered and re-levitated. In-situ x-ray structure measurements were then made on the cold solids as they warmed back to room temperature.
# Generally, radiations greater than 40 keV are suitable to provide bulk structure detail of materials about a millimeter or two in size.
# [4] = In situ x-ray monitoring of levitated amorphous gel over time; conditions: after more than 14 hours of in situ measurements on the levitated drop, from ethanol solution
# Excerpt: By following the position of the principal peak in the x-ray diffraction patterns for all the supersaturated solutions, the amorphization process was investigated as a function of time. […] The fact there are no sharp (needle like) peaks in the measured spectra indicates the materials are completely amorphous. […] Some of the samples prepared using the invented process maintained their amorphous form for at least three weeks. This imaging method enabled the structural evolution of the material to be monitored in real time. The data were acquired from levitated samples in two minute duration sets.
# [5] = quenched samples stored at about −20° C. to 25° C., as noted in Table 1
Tg [2],"Stability of amorphized drug over a period of months [1, 5]",Amorphous state during temperature exposure [3],Time amorphous form could be stored [3],also measured,SMILES
61 °C,–,–,–,"Shelf life: amorphous state at time 1 month ([1]; stored at 4° C., 1 month): A/P; Shelf life: amorphous state at time 2 months ([1]; stored at 4° C., 2 months): A/P; Shelf life: amorphous state at time 3 months ([1]; stored at 4° C., 3 months): A/P; Shelf life: amorphous state at time 4 months ([1]; stored at 4° C., 4 months): A/P",NC(=O)N1c2ccccc2C=Cc2ccccc21 [Carbamazepine]
7 °C,remained substantially stable,–,–,–,"C(=C\c1ccccc1)/CN1CCN(C(c2ccccc2)c2ccccc2)CC1 [Cinnazirine, Cinnarizine]"
–,–,remain amorphous,at least three,–,CC(C)(C)CC(C)(C)c1ccc(O)c(Cc2ccc(Cl)cc2Cl)c1 [Clofoctol]
30 °C,remained substantially stable,remain amorphous,at least three,–,Clc1ccccc1C(c1ccccc1)(c1ccccc1)n1ccnc1 [Clotrimazole]
–,–,–,at least three,Changes in structure of levitated amorphous gel after plateau [4]: only minimal changes in structure,CC(C)Cc1ccc(C(C)C(=O)O)cc1 (stereo not shown) [Ibuprofen]
−3 °C,–,remain amorphous,at least three,–,CC(C(=O)O)c1cccc(C(=O)c2ccccc2)c1 (stereo not shown) [Ketoprofen]
1 °C,remained substantially stable,–,–,–,Clc1ccc(COC(Cn2ccnc2)c2ccc(Cl)cc2Cl)c(Cl)c1 (stereo not shown) [Miconazole Nitrate]
27 °C,–,–,–,Stability of amorphized drug over a period of months [1]: remained substantially stable,CC(C)(Sc1cc(C(C)(C)C)c(O)c(C(C)(C)C)c1)Sc1cc(C(C)(C)C)c(O)c(C(C)(C)C)c1 [Probucol]
